These results are taken from ChEMBL document CHEMBL4033774, “Class I HDAC Inhibitors: Potential New Epigenetic Therapeutics for Alcohol Use Disorder (AUD)” (J Med Chem, 2018).

By IC50 is commonly meant the concentration that gives 50% inhibition.

Experiment [1] addresses T1, Histone deacetylase 2 (Homo sapiens, UniProt Q92769). The experiment can be described thus: Inhibition of human full length C-terminal His/FLAG-tagged HDAC2 expressed in baculovirus infected Sf9 cells preincubated for 3 hrs followed by fluorophore conjugated MAZ1600 substrate addition measured every 5 mins by fluorescence assay.
The target of experiment [2] is T2, Histone deacetylase 3/Nuclear receptor corepressor 2 (HDAC3/NCoR2) (Homo sapiens, UniProt O15379). The experiment can be described thus: Inhibition of human full length C-terminal His-tagged HDAC3/N-terminal GST-tagged human NCOR2 (395 to 489 residues) co-expressed in baculovirus infected Sf9 insect cells preincubated for 3 hrs followed by fluorophore conjugated MAZ1600 substrate addition measured every 5 mins by fluorescence assay.

Experiment [3] concerns the target T3, Histone deacetylase 1 (Homo sapiens, UniProt Q13547). The experiment can be described thus: Inhibition of recombinant full length human C-terminal FLAG/His-tagged HDAC1 expressed in baculovirus infected sf9 cells preincubated for 3 hrs followed by fluorophore conjugated MAZ1600 substrate addition measured every 5 mins by fluorescence assay.
In experiment [4] the target is Histone deacetylase 5 (Homo sapiens, UniProt Q9UQL6). The experiment can be described thus: Inhibition of human recombinant C-terminal His-tagged HDAC5 expressed in baculovirus infected insect cells preincubated for 2 hrs followed by Fluor-de-Lys substrate addition measured after 30 mins by fluorescence assay. It is filed as cell-based.
In experiment [5] the target is T4, Histone deacetylase 8 (Homo sapiens, UniProt Q9BY41).
T4 sequence (Q9BY41 whole entry): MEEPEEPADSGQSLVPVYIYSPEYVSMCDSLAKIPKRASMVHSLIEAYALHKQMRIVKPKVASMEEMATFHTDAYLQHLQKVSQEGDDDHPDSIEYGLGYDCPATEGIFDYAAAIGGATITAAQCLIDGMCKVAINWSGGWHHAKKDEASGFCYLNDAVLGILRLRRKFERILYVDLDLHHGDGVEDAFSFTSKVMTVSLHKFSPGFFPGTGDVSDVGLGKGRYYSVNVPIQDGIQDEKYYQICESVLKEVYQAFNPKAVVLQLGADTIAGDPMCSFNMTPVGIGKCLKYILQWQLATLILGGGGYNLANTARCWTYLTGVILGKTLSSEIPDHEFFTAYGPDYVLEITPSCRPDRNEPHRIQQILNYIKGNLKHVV
The experiment in a line: Inhibition of HDAC8 (unknown origin) preincubated for 2 hrs followed by Fluor-de-Lys substrate addition measured after 30 mins by fluorescence assay.

In experiment [6] the target is T2, Histone deacetylase 3/Nuclear receptor corepressor 2 (HDAC3/NCoR2). The experiment in a line: Inhibition of human full length C-terminal His-tagged HDAC3/N-terminal GST-tagged human NCOR2 co-expressed in baculovirus infected Sf9 insect cells preincubated for 2 hrs followed by Fluor-de-Lys substrate addition measured after 30 mins by fluorescence assay. In kind it is cell-based.

Experiment [7] deals with T3, Histone deacetylase 1. The experiment can be described thus: Inhibition of human full length C-terminal His/FLAG-tagged HDAC1 expressed in baculovirus infected Sf9 insect cells preincubated for 2 hrs followed by Fluor-de-Lys substrate addition measured after 30 mins by fluorescence assay. It is filed as cell-based.
Experiment [8] has as its target T5, Histone deacetylase 7 (Homo sapiens, UniProt Q8WUI4).
T5 sequence (Q8WUI4 whole entry): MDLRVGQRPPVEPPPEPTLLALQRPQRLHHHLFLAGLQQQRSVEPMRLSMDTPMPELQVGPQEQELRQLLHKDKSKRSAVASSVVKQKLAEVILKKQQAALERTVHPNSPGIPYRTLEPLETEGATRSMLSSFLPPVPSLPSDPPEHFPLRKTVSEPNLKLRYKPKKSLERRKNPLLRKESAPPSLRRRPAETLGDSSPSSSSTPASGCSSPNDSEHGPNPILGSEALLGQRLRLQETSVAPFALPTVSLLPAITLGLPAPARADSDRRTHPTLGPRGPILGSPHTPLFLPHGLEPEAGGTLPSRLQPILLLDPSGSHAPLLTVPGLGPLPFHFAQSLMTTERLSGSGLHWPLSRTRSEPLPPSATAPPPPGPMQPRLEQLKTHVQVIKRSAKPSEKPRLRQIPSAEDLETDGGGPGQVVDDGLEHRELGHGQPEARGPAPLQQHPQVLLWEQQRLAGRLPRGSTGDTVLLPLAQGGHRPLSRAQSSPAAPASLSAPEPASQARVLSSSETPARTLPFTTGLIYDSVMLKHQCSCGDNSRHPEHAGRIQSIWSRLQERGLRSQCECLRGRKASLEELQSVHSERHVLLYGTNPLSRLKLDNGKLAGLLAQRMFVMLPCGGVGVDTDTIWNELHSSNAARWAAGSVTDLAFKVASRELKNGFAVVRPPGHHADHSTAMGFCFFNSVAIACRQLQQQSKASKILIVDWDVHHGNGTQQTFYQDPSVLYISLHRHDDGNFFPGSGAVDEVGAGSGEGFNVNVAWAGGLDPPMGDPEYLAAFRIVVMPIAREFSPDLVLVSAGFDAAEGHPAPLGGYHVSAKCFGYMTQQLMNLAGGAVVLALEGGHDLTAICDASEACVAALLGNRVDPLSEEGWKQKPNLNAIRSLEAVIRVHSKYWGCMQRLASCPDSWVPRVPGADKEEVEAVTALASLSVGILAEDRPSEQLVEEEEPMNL
The experiment can be described thus: Inhibition of human recombinant N-terminal GST-tagged HDAC7 expressed in baculovirus infected insect cells preincubated for 2 hrs followed by Fluor-de-Lys substrate addition measured after 30 mins by fluorescence assay. It is filed as cell-based.

In experiment [9] the target is Histone deacetylase 4 (Homo sapiens, UniProt P56524). The experiment can be described thus: Inhibition of human recombinant N-terminal GST-tagged/C-terminal His-tagged HDAC4 expressed in baculovirus infected insect cells preincubated for 2 hrs followed by Fluor-de-Lys substrate addition measured after 30 mins by fluorescence assay. It is filed as cell-based.
For experiment [10], the target named is T1, Histone deacetylase 2. The experiment in a line: Inhibition of human full length C-terminal FLAG-tagged HDAC2 expressed in baculovirus infected Sf9 insect cells preincubated for 2 hrs followed by Fluor-de-Lys substrate addition measured after 30 mins by fluorescence assay. In kind it is cell-based.
Experiment [11] has as its target T3, Histone deacetylase 1. The experiment can be described thus: Inhibition of human full length C-terminal His/FLAG-tagged HDAC1 expressed in baculovirus infected Sf9 insect cells after 1 hr in presence of acetylated lysine substrate by fluorescence assay.
The species named for experiment [12] is Homo sapiens. The experiment in a line: Selectivity ratio of IC50 for human full length C-terminal His/FLAG-tagged HDAC1 expressed in baculovirus infected Sf9 insect cells to IC50 for human full length C-terminal His-tagged HDAC2 expressed in baculovirus infected Sf9 insect cells.
Experiment [13] has as its target T2, Histone deacetylase 3/Nuclear receptor corepressor 2 (HDAC3/NCoR2). The experiment in a line: Inhibition of human full length C-terminal His-tagged HDAC3/N-terminal GST-tagged human NCOR2 co-expressed in baculovirus infected Sf9 insect cells after 1 hr in presence of acetylated lysine substrate by fluorescence assay.
Experiment [14] has as its target T1, Histone deacetylase 2. The experiment in a line: Inhibition of human full length C-terminal His-tagged HDAC2 expressed in baculovirus infected Sf9 insect cells after 1 hr in presence of acetylated lysine substrate by fluorescence assay.

A value given as a limit tells only on which side of the number the result lay.

T3 sequence (Q13547 whole entry): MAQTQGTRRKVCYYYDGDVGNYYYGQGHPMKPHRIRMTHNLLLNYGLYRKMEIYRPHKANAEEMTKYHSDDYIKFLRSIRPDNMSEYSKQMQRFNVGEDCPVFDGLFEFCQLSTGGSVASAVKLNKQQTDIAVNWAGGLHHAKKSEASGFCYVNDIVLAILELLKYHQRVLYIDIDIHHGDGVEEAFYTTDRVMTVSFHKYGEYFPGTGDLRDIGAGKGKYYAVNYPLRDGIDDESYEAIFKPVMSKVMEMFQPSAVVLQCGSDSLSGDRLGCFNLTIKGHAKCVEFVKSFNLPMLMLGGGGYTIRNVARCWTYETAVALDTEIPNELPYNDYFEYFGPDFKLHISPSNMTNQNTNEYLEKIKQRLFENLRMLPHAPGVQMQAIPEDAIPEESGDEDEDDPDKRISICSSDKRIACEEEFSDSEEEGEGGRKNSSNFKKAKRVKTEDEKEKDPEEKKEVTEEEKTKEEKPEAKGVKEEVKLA
T1 sequence (Q92769 whole entry, the tested form may be a part): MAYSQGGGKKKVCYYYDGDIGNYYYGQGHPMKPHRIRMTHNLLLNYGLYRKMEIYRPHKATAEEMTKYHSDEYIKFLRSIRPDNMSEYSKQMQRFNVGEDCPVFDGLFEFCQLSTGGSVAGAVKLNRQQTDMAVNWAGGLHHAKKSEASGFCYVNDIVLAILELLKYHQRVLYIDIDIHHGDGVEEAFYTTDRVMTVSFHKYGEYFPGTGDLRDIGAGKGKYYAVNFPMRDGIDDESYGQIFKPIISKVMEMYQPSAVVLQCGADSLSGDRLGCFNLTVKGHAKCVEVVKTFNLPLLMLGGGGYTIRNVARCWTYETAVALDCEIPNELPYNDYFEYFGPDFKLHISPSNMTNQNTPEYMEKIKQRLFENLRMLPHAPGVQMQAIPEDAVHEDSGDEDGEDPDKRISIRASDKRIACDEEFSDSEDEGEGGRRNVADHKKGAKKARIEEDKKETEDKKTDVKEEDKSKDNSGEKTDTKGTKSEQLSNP
T2 sequence (O15379 whole entry, the tested form may be a part): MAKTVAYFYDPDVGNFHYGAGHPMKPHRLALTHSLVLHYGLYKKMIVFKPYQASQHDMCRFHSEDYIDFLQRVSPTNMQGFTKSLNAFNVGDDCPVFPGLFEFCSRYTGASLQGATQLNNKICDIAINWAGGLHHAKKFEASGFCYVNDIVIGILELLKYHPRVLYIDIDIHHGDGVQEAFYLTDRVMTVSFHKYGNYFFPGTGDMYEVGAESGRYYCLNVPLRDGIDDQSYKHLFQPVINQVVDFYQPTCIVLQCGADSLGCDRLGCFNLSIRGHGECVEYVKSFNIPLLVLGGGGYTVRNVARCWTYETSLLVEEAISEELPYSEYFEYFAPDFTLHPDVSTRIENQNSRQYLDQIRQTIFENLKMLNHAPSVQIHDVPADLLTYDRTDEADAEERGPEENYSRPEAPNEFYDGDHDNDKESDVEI
T2 sequence (Q9Y618 whole entry, further chain, the tested form may be a part): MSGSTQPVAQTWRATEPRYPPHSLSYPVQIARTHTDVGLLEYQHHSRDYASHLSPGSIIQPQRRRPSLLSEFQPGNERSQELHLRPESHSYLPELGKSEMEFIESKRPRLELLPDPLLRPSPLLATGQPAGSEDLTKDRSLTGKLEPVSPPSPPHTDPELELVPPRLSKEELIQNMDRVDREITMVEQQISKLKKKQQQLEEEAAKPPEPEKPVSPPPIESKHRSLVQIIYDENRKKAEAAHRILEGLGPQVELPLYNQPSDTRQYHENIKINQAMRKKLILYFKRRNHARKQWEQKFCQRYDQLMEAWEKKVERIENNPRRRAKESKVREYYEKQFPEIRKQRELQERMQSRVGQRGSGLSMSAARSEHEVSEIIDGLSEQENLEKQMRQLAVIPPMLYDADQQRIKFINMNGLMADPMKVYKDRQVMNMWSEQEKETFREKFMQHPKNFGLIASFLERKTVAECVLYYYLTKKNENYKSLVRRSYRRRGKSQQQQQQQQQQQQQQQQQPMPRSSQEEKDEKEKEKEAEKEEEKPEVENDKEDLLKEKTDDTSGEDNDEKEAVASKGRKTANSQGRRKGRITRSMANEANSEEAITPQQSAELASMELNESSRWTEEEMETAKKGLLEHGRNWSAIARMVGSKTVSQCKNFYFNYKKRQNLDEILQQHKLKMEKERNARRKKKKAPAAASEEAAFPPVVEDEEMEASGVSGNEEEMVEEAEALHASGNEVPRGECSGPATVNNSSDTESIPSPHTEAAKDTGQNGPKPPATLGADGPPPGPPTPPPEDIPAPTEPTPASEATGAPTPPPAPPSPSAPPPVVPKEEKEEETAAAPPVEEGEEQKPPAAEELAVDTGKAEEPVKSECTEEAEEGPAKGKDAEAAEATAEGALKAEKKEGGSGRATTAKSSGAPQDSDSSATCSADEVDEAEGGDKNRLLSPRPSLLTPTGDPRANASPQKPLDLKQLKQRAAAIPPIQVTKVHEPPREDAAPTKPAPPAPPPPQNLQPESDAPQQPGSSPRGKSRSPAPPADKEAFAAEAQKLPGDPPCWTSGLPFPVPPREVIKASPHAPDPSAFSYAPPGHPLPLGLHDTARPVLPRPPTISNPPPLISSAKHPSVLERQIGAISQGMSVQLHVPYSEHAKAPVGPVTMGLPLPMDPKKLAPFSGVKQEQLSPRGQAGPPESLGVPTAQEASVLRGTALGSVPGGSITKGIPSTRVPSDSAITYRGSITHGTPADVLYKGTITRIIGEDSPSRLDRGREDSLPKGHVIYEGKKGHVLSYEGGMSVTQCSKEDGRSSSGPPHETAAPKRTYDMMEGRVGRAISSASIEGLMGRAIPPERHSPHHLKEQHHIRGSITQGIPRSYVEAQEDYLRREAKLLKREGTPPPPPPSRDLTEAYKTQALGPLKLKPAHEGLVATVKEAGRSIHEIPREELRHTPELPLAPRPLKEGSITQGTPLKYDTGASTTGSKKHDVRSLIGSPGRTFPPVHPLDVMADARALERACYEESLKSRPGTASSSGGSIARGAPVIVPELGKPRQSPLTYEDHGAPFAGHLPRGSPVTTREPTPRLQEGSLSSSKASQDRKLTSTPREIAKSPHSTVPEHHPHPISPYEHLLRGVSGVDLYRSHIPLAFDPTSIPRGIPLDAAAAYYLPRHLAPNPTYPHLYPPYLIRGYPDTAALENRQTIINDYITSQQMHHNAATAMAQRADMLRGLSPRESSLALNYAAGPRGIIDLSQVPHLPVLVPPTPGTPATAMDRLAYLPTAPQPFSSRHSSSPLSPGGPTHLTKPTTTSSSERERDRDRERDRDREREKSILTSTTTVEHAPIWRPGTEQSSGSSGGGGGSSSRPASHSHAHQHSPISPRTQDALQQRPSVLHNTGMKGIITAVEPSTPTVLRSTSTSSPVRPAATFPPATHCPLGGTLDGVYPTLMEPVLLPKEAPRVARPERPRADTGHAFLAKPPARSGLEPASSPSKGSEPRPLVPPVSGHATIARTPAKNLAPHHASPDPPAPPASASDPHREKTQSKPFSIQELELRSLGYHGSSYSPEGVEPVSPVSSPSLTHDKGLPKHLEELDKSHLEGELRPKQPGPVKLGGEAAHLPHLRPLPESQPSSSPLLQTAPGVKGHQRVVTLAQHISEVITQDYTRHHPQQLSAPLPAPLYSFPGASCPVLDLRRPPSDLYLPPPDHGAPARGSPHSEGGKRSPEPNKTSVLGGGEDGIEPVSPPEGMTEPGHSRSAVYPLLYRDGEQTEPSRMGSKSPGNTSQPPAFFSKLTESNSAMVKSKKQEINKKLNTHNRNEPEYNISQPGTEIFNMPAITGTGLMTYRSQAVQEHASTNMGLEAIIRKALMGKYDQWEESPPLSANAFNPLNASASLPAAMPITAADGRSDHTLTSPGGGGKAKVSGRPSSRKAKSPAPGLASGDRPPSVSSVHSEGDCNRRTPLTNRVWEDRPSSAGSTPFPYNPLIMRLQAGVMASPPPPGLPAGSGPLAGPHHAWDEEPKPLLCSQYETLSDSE
Sequence of Histone deacetylase 4 (P56524 whole entry): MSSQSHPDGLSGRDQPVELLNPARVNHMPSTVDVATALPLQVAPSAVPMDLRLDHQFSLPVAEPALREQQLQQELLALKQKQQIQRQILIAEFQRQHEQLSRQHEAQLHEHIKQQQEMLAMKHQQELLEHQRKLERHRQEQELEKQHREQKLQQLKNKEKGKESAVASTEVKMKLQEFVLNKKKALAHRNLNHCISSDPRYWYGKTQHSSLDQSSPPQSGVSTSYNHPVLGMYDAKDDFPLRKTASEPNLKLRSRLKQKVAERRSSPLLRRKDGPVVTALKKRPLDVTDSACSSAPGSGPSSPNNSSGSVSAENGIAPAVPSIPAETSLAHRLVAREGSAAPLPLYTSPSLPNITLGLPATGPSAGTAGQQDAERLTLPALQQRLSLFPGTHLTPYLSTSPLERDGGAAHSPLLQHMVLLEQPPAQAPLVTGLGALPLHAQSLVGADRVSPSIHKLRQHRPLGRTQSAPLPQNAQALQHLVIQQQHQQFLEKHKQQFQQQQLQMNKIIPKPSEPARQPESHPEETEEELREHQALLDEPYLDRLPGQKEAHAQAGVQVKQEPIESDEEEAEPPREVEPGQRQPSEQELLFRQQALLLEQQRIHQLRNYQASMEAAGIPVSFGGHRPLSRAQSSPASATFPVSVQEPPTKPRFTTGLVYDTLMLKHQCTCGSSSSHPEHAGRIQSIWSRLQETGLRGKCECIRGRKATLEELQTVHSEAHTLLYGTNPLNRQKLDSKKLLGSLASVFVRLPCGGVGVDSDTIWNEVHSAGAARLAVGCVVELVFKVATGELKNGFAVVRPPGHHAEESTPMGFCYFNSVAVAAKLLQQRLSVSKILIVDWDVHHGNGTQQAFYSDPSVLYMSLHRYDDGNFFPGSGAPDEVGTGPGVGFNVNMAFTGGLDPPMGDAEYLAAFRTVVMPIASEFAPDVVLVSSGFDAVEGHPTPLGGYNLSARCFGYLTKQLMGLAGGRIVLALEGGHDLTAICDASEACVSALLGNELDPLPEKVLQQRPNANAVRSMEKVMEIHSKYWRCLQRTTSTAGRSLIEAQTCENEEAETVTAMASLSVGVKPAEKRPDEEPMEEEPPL

As for `C[C@H](CO)N1C[C@H](C)[C@H](CN(C)Cc2ccc(C(=O)Nc3ccccc3N)cc2)Oc2ccc(N(C)C)cc2CC1=O`, the values for the IC50 in experiment [1], in experiment [2] and in [3] were 560 nM, 1300 nM and 69 nM, respectively.
On to `Nc1ccccc1NC(=O)CCCCCC(=O)Nc1ccccc1`, for which the IC50 in experiment [4] is greater than 180000 nM; in experiment [5], 5000 nM; in [6] it was 69 nM; in experiment [7], 199 nM; in experiment [8], greater than 180000 nM; in experiment [9] it was greater than 180000 nM. Also, half-maximal inhibition in experiment [10] (IC50) required 1590 nM.
For `O=C(/C=C(\CO)c1ccccc1)c1ccccc1`, the results for the half-inhibitory concentration (IC50) in experiment [11], in experiment [13] and in [14] were 2740 nM, 50000 nM and 170 nM, respectively. For the same molecule, the Ratio IC50 in [12] was 20.
